Reference: patent publication US20250361271A1, “PEPTIDE AGONIST” (THE UNIVERSITY OF BIRMINGHAM, priority 2022, published 2025)
Where a SMILES comes first, the peptide text is derived from it. [ ]: non-standard residue; d: D form. d(pGlu) = O=C1CC[C@H](C(=O)O)N1; pGlu = O=C1CC[C@@H](C(=O)O)N1; Aib = CC(C)(N)C(=O)O

Assays:
[1] = system: PBLs on cytokine stimulated HDBECs; details: for % Inhibition (0.3 nM): 0.3 nM peptide; for % Inhibition (0.3 nM) / % Inhibition (3 nM): inhibition of PBL transmigration (as a percentage of adherent cells); for % Inhibition (3 nM): 3 nM peptide; for effectiveness in inhibiting PBL transmigration compared with PEPITEM (% Inhibition at 0.3 and/or 3 nM): PEPITEM 41.90
Protocol: Blood samples were obtained from consensual healthy donors and were collected in EDTA tubes (Sigma-Aldrich). […] 5 ml of blood was layered on top of the density gradient, and was centrifuged at 2500 rpm for 45 minutes. […] The PBMCs were washed twice for 7 minutes at 1500 rpm. Peripheral blood lymphocytes (PBLs) were isolated via panning PBMCs onto a culture flask for 30 minutes at 37° C., allowing monocytes to adhere.
HDBECS defrosted at 37° C. in a 25 cm^2 cell culture flask in 10 ml of media were dissociated using EDTA (Sigma-Aldrich) and Trypsin (Gibco) and seeded on 10 wells in a 12-well tissue culture plates (Falcon) and left to adhere at 37° C. After 24 hours, confluent endothelial layers were cytokine stimulated using 100 U/ml TNF-α (Sigma-Aldrich) and 10 ng/ml IFN-γ (Peprotech) for 24 hours at 37° C. The peptide treatment of the 1×10^6 cells/ml PBLs consisted of adding the peptides immediately before use. […] 1×10^6 PBLs were added to each well and incubated at 37° C., allowing PBLs to adhere to migrate across the endothelium. […] Cells were then fixed with 2% glutaraldehyde for 10 minutes and then imaged using phase-contrast microscopy via an inverted bright-field microscope at 20× magnification.
Imaging of the PBL migration assay was carried out using ImagePro 7 software (Media Cybernetics). Surface adherent cells were categorised as being phase-bright, and transmigrated cells were categorised as phase-dark with altered morphology, appearing as being under the endothelial layer. Images were taken at 5 different fields of each well, and an average of counted adherent and migrated PBLs was calculated.
The same methods described for the in vitro transmigration assay and analysis were used, and PBL transmigration was calculated as a percentage of adherent cells. Peptides were added to the PBLs at concentrations ranging from 0.0001-500 ng/ml on the cytokine stimulated HDBECs and the resulting PBL transmigration (as a percentage of adherent cells) was plotted as a function of log10 of the peptide concentration.
The peptides were added at concentration of 20 ng/ml and run alongside untreated PBL (PBL0) and scrambled protein to analyse their effects on adhesion and transmigration.

T1/2 in plasma (mouse) = format: in vitro ADME; details: for half-life: mouse, plasma, 1 μM peptide, 37° C.; for stability compared with PEPITEM: in mouse plasma, human plasma, and or mouse blood
From the text: Take all measurements in duplicate.

[2] = system: primary murine calvarial osteoblasts; assay: Alkaline phosphatase activity, murine osteoblasts; format: cell-based, mouse; details: 8 days, vs untreated cells, FIG. 5b
Protocol: Skin was removed from around calvaria using forceps, and the calvaria was dissected out and cleaned of any contaminating tissue. Calvaria were added to αMEM media supplemented with 1 mg/ml of collagenase d (Roche, Basel, Switzerland, COLLD-RO). Tubes were then agitated at 37° C. for 10 minutes and the media discarded. αMEM media supplemented with 1 mg/ml of collagenase d was again added to calvaria and shaken at 37° C. for 30 minutes. Media (containing cells) was then removed and kept on ice. The calvaria were then again shaken at 37° C. for 10 minutes in 1.5 ml of αMEM media supplemented with 5 μM EDTA (Sigma-Aldrich, E7889) and the cell containing media transferred to the sample on ice, pooling the cells. […] Cells on ice were then spun down at 300 g for 4 minutes, resuspended in 1 ml of Basal media and counted using a haemocytometer. […] Mineralisation was assessed by quantifying the level of alkaline phosphate (ALP) activity (absorbance at 405 nm) per condition normalized to the absorbance generated by the untreated control (control on the graph). […] The plate was wrapped in foil and left to run for 45 minutes at 37° C. in an incubated shaker (SciQuip; Shropshire, UK) before being quantified using a Synergy HT plate reader (BioTek) with absorbance set at 405 nm.

[3] = format: in vitro ADME, pig
Protocol: Pig eyes were treated with either […] or one of TVS (reverse sequence of SVT comprising amino acids in D-isomeric forms), […] and QGA, derived from the […] sequence. The eyes were then incubated in a dark humified chamber. The eyes were dissected, and the vitreous humour and retina were harvested. The samples were sonicated to break up the tissue and purified using a C18 column. Once purified, the samples were digested and analysed by mass spectrometry.

Protocol for T1/2 in blood (mouse): Store at −20° C. or on ice. • 2) Thaw the blood and spin in a centrifuge at 1500×g for 10 minutes at room temperature. • 3) Prepare stock solution of the peptide at 10 mM in DMSO or PBS and dilute solutions by adding 3 μL of 10 mM stock to 297 μL DMSO or PBS (100 μM stock for a final 1 μM concentration). • 4) Add 550 μL blood to an incubation tube and separately add 4 μL of peptide stock solution to an incubation tube. Warm the incubation tubes (5 minutes, 37° C., with shaking). • 5) After warming, add 396 μL of warmed blood to warmed peptide (time=0). Mix well and shake the tube containing the mixed sample (37° C., 1400×g). • 6) At 2, 5, 15, 30, 45 and 60 minutes after contacting the peptide and blood, collect 40 μL of the sample into pre-prepared quench tubes. • 7) Analyse the sample at each time point by mass spectrometry. Take all measurements in duplicate.
The samples were analysed and the T1/2 values were calculated by XenoGesis. The T1/2 values correspond to the time taken for the concentration of the peptide in the blood or plasma to be reduced by 50%.

Compound: C[C@@H](O)[C@H](NC(=O)[C@H](Cc1ccccc1)NC(=O)[C@@H](N)CO)C(N)=O [SEQ ID NO. 16, H-SFT-NH2] (H-Ser-Phe-Thr-NH2)
- % Inhibition (0.3 nM) [1]: 39.78%
- % Inhibition (3 nM) [1]: 33.33%

Compound: CC(C)[C@H](NC(=O)[C@@H](N)CO)C(=O)N[C@@H](CO)C(N)=O [SEQ ID NO. 9, H-SVS-NH2] (H-Ser-Val-Ser-NH2)
- half-life (T1/2 in plasma (mouse)): 1.72 h
- % Inhibition (0.3 nM) [1]: 42.51%
- % Inhibition (3 nM) [1]: 38.10%
- effectiveness in inhibiting PBL transmigration compared with PEPITEM (% Inhibition at 0.3 and/or 3 nM) [1]: more effective

Compound: H-S*VT-NH2 [SEQ ID NO. 7]
- % Inhibition (0.3 nM) [1]: 9.50%

Compound: CCNC(=O)[C@H](C)NC(=O)CNC(=O)[C@H](CCC(N)=O)NC(C)=O [SEQ ID NO. 24, Ac-QGA-NH-Ethyl] (Ac-Gln-Gly-Ala-NHEt)
- % Inhibition (0.3 nM) [1]: 50.00%
- effectiveness in inhibiting PBL transmigration compared with PEPITEM (% Inhibition at 0.3 and/or 3 nM) [1]: more effective

Compound: CC(C)C[C@H](NC(=O)[C@@H](N)CO)C(=O)N[C@H](C(N)=O)[C@@H](C)O [SEQ ID NO. 15, H-SLT-NH2] (H-Ser-Leu-Thr-NH2)
- half-life (T1/2 in plasma (mouse)): 0.117 h
- % Inhibition (0.3 nM) [1]: 46.00%
- % Inhibition (3 nM) [1]: 20.75%
- effectiveness in inhibiting PBL transmigration compared with PEPITEM (% Inhibition at 0.3 and/or 3 nM) [1]: more effective

Compound: CC(C)[C@H](NC(=O)CNC(=O)[C@@H]1CCC(=O)N1)C(N)=O [SEQ ID NO. 31, pEGV-NH2] ([pGlu]-Gly-Val-NH2)
- half-life (T1/2 in blood (mouse); whole blood): > 3 h
- % Inhibition (0.3 nM) [1]: 49.94%
- % Inhibition (3 nM) [1]: 50.27%

Compound: CC(=O)N[C@@H](CO)C(=O)N[C@H](C(=O)N[C@H](C(N)=O)[C@@H](C)O)C(C)C [SEQ ID NO. 5, Ac-SVT-NH2] (Ac-Ser-Val-Thr-NH2)
- half-life (T1/2 in plasma (mouse)): 1.98 h
- % Inhibition (3 nM) [1]: 42.50%
- effectiveness in inhibiting PBL transmigration compared with PEPITEM (% Inhibition at 0.3 and/or 3 nM) [1]: more effective

Compound: NC(=O)[C@H](Cc1ccccc1)NC(=O)CNC(=O)[C@@H]1CCC(=O)N1 [SEQ ID NO. 33, pEGF-NH2] ([pGlu]-Gly-Phe-NH2)
- half-life (T1/2 in blood (mouse); whole blood): 2.43 h
- % Inhibition (0.3 nM) [1]: 49.15%
- % Inhibition (3 nM) [1]: 42.84%

Compound: C[C@@H](O)[C@H](NC(=O)[C@H](Cc1ccc(O)cc1)NC(=O)[C@@H](N)CO)C(N)=O [SEQ ID NO. 18, H-SYT-NH2] (H-Ser-Tyr-Thr-NH2)
- half-life (T1/2 in plasma (mouse)): 0.283 h
- % Inhibition (0.3 nM) [1]: 39.18%
- % Inhibition (3 nM) [1]: 42.83%
- effectiveness in inhibiting PBL transmigration compared with PEPITEM (% Inhibition at 0.3 and/or 3 nM) [1]: more effective

Compound: SVTQAA [SEQ ID NO. 40]
- PBL transmigration ([1]; PBL0 37%, FIG. 4): 23%
- effect on PBL transmigration ([1]; compared to untreated PBL (PBL0), 20 ng/ml): significant (p<0.01) fall in PBL transmigration

Compound: COC[C@H](N)C(=O)N[C@H](C(=O)N[C@H](C(N)=O)[C@@H](C)O)C(C)C [SEQ ID NO. 12, H-S(OMe)VT-NH2] (H-Ser(Me)-Val-Thr-NH2)
- % Inhibition (0.3 nM) [1]: 34.72%
- % Inhibition (3 nM) [1]: 62.27%
- effectiveness in inhibiting PBL transmigration compared with PEPITEM (% Inhibition at 0.3 and/or 3 nM) [1]: more effective

Compound: CC(C)[C@H](NC(=O)[C@@H](N)[C@@H](C)O)C(=O)N[C@H](C(N)=O)[C@@H](C)O [SEQ ID NO. 8, H-TVT-NH2] (H-Thr-Val-Thr-NH2)
- half-life (T1/2 in plasma (mouse)): 0.283 h
- % Inhibition (0.3 nM) [1]: 45.47%
- % Inhibition (3 nM) [1]: 48.19%
- effectiveness in inhibiting PBL transmigration compared with PEPITEM (% Inhibition at 0.3 and/or 3 nM) [1]: more effective

Compound: TSV
- ALP activity (maturation mineralisation), murine osteoblasts [2]: significantly increased

Compound: CC(C)[C@@H](NC(=O)[C@H](N)[C@H](C)O)C(=O)N[C@H](CO)C(N)=O (relative stereo) [SEQ ID NO. 11, H-T*V*S*-NH2]
- stability compared with PEPITEM (T1/2 in plasma (mouse)): at least as stable
- half-life (T1/2 in plasma (mouse)): > 3 h
- eye tissue in which the peptide was found by mass spectrometry [3]: Retina only
- IC50 [1]: 0.024 nM

Compound: CC[C@H](C)[C@H](NC(=O)[C@@H](N)CO)C(=O)N[C@H](C(N)=O)[C@@H](C)O [SEQ ID NO. 14, H-SIT-NH2] (H-Ser-Ile-Thr-NH2)
- % Inhibition (0.3 nM) [1]: 3.40%
- % Inhibition (3 nM) [1]: 28.23%

Compound: C[C@H](NC(=O)CNC(=O)[C@@H]1CCC(=O)N1)C(N)=O [SEQ ID NO. 23, pEGA-NH2] ([pGlu]-Gly-Ala-NH2)
- half-life (T1/2 in plasma (mouse)): > 3 h
- IC50 [1]: 0.0032 nM
- % Inhibition (0.3 nM) [1]: 54.50%
- effectiveness in inhibiting PBL transmigration compared with PEPITEM (% Inhibition at 0.3 and/or 3 nM) [1]: more effective
- potency at inhibiting the transmigration of T cells compared with PEPITEM (IC50) ([1]; PEPITEM IC50 0.02): more potent

Compound: CCCCCCNC(=O)[C@@H](NC(=O)[C@@H](NC(=O)[C@@H](N)CO)C(C)C)[C@@H](C)O [SEQ ID NO. 13, H-SVT-NH-Hexyl]
- % Inhibition (0.3 nM) [1]: 23.56%
- % Inhibition (3 nM) [1]: 12.83%

Compound: CC(=O)N[C@@H](CCC(N)=O)C(=O)NCC(=O)NC(C)(C)C(=O)O [SEQ ID NO. 25, Ac-QGAib] (Ac-Gln-Gly-[Aib]-OH)
- % Inhibition (0.3 nM) [1]: 32.00%

Compound: C[C@H](NC(=O)CNC(=O)[C@@H]1CCC(=O)N1)C(=O)N(C)C [SEQ ID NO. 30, pEGA-N(Me)2] ([pGlu]-Gly-Ala-NMe2)
- half-life (T1/2 in blood (mouse); whole blood): > 3 h
- % Inhibition (0.3 nM) [1]: 44.70%
- % Inhibition (3 nM) [1]: 42.65%

Compound: CCNC(=O)[C@H](C)NC(=O)CNC(=O)[C@@H]1CCC(=O)N1 [SEQ ID NO. 22, pEGA-NH-Ethyl] ([pGlu]-Gly-Ala-NHEt)
- half-life (T1/2 in plasma (mouse)): > 3 h
- % Inhibition (0.3 nM) [1]: 35.40%

Compound: EGA
- eye tissue in which the peptide was found by mass spectrometry [3]: Retina only

Compound: CC(=O)N[C@H](CCC(N)=O)C(=O)NCC(=O)N[C@H](C)C(N)=O [SEQ ID NO. 26, Ac-Q*GA*-NH2]
- stability compared with PEPITEM (T1/2 in plasma (mouse)): at least as stable
- half-life (T1/2 in plasma (mouse)): > 3 h
- IC50 [1]: 0.018 nM

Compound: CC(=O)N[C@@H](CO)C(=O)N[C@H](C(=O)N[C@H](C(=O)O)[C@@H](C)O)C(C)C [SEQ ID NO. 3, Ac-SVT] (Ac-Ser-Val-Thr-OH)
- % Inhibition (3 nM) [1]: 36.80%

Compound: CNC(=O)[C@H](C)NC(=O)CNC(=O)[C@@H]1CCC(=O)N1 [SEQ ID NO. 29, pEGA-NHMe] ([pGlu]-Gly-Ala-NHMe)
- half-life (T1/2 in blood (mouse); whole blood): 1.62 h
- % Inhibition (0.3 nM) [1]: 40.89%
- % Inhibition (3 nM) [1]: 43.35%

Compound: H-S*V*T*-NH2 [SEQ ID NO. 10]
- % Inhibition (0.3 nM) [1]: 24.76%
- % Inhibition (3 nM) [1]: 39.51%

Compound: CC(C)C[C@H](NC(=O)CNC(=O)[C@@H]1CCC(=O)N1)C(N)=O [SEQ ID NO. 32, pEGL-NH2] ([pGlu]-Gly-Leu-NH2)
- % Inhibition (0.3 nM) [1]: 25.34%
- % Inhibition (3 nM) [1]: 58.16%

Compound: C[C@@H](NC(=O)CNC(=O)[C@H]1CCC(=O)N1)C(N)=O [SEQ ID NO. 28, pE*GA*-NH2] ([d(pGlu)]-Gly-[dA]-NH2)
- half-life (T1/2 in blood (mouse)): 1.17 h
